{"source": "patent US8003118B2", "about": "(priority 2005, dated 2011)", "origin": "cited, not measured here"}
{"smiles": "CO[C@H]1/C=C/O[C@@]2(C)Oc3c(C)c(O)c4c(O)c(c5c(nc6cc(C)ccn65)c4c3C2=O)NC(=O)/C(C)=C\\C=C\\[C@H](C)[C@H](O)[C@@H](C)[C@@H](O)[C@@H](C)[C@H](OC(C)=O)[C@@H]1C", "note": "[rifaximin, (2S,16Z,18E,20S,21S,22R,23R,24R,25S,26S,27S,28E)-5,6,21,23,25-pentahydroxy-27-methoxy-2,4,11,16,20,22,24,26-octamethyl-2,7-(epoxypentadeca-[1,11,13]trienimino)benzofuro[4,5-e]pyrido[1,2-α]-benzimidazole-1,15(2H)-dione,25-acetate]", "values": [{"measurement": "solubility in water", "value": "practically insoluble"}]}
